Test results as given in ChEMBL document CHEMBL1127958, “Dual metalloprotease inhibitors. III. utilization of bicyclic and monocyclic diazepinone based mercaptoacetyls” (Bioorg Med Chem Lett, 1994).

Key:
[1] = target: Angiotensin-converting enzyme (Rattus norvegicus) (UniProt P47820); assay: In vitro inhibitory activity against angiotensin converting enzyme (ACE) in rat was determined; details: read-out: I50
Rattus norvegicus = assay: In vivo effective dose against angiotensin I induced pressor response after intravenous administration in normotensive rats; format: functional
Neprilysin = Neprilysin (Homo sapiens, UniProt P08473); assay: In vitro inhibitory activity against neutral endopeptidase (NEP) was determined; details: read-out: I50
Sequence of Neprilysin (P08473 whole entry): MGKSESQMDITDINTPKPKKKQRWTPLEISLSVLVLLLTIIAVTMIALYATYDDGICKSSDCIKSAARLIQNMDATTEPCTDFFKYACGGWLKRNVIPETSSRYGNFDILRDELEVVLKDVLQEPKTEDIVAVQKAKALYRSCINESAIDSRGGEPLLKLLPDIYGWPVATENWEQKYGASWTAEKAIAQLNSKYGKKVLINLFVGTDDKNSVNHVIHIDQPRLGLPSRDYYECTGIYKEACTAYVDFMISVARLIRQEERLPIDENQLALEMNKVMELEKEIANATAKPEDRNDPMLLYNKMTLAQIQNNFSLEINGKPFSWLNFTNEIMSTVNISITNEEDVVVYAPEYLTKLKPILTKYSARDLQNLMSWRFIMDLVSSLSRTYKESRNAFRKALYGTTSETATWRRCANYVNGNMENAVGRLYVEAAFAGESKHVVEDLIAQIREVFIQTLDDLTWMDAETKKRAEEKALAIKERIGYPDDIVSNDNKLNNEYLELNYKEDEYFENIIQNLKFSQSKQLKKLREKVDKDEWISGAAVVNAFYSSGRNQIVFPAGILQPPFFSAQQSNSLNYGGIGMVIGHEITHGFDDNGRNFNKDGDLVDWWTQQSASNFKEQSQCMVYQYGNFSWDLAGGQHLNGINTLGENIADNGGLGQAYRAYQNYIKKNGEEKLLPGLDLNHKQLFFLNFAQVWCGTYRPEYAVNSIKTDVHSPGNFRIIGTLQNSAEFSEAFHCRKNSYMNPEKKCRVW

Sequence of Angiotensin-converting enzyme (Rattus norvegicus) (P47820 whole entry, looked up): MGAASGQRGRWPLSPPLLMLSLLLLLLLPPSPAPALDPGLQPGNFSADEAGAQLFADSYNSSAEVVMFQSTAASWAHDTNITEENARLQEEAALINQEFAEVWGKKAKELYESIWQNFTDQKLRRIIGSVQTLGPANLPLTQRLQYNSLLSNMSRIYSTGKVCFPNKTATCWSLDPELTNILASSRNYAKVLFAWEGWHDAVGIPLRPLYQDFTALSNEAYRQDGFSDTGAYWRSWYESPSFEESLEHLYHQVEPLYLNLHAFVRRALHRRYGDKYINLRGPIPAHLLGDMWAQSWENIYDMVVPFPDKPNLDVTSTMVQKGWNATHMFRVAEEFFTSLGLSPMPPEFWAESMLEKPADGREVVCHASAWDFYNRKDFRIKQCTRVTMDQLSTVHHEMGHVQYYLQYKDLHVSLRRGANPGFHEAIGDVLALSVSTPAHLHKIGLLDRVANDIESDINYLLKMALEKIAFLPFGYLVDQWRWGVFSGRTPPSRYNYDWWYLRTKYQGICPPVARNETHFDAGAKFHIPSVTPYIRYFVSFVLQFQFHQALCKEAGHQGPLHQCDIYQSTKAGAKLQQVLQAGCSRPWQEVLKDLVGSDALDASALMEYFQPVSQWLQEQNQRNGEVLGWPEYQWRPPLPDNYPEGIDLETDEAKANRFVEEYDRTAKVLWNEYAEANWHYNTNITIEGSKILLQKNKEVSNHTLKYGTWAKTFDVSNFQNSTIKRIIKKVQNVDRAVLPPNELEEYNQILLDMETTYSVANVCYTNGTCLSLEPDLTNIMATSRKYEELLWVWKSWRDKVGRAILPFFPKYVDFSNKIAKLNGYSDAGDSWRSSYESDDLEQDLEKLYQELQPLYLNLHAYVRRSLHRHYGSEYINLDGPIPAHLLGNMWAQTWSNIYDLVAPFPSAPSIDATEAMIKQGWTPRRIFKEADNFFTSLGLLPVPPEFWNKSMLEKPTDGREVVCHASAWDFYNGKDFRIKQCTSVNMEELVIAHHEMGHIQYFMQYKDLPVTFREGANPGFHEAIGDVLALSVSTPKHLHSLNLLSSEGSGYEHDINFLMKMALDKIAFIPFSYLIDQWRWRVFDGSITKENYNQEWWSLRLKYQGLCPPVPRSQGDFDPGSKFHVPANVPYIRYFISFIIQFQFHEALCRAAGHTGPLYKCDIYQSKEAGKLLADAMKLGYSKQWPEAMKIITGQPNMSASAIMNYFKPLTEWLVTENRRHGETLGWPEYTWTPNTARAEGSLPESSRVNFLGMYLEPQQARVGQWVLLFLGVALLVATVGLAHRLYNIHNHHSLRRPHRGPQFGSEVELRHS

| SMILES | IC50 [1] [µM] | IC50 (Neprilysin) [µM] | ED50 (Rattus norvegicus) [µmol/kg] |
| --- | --- | --- | --- |
| O=C(O)CN1C(=O)[C@@H](NC(=O)[C@@H](S)Cc2ccccc2)CCc2ccccc21 | 0.012 |  | 0.02 |
| O=C(O)CN1NCCC[C@H](NC(=O)[C@@H](S)Cc2ccccc2)C1=O |  | 0.486 |  |
| O=C(N[C@H]1CCCN2CCC[C@@H](C(=O)O)N2C1=O)[C@@H](S)Cc1ccccc1 |  | 0.003 | 0.01 |
| O=C(N[C@H]1CCCN2CC[C@@H](C(=O)O)N2C1=O)[C@@H](S)Cc1ccccc1 |  | 0.022 | 0.12 |
| O=C(N[C@H]1CCC(=O)N2CCC[C@@H](C(=O)O)N2C1=O)[C@@H](S)Cc1ccccc1 |  | 0.016 | 0.23 |

Second part, led by results:

| IC50 [1] [µM] | IC50 (Neprilysin) [µM] | SMILES | ED50 (Rattus norvegicus) [µmol/kg] |
| --- | --- | --- | --- |
|  | 0.055 | CN1C(=O)CC[C@H](NC(=O)[C@@H](S)Cc2ccccc2)C(=O)N1CC(=O)O | 0.13 |
|  | 0.14 | O=C(N[C@H]1CCC(=O)N2CC[C@@H](C(=O)O)N2C1=O)[C@@H](S)Cc1ccccc1 |  |
|  | 1.49 | CCCN1CCC[C@H](NC(=O)[C@@H](S)Cc2ccccc2)C(=O)N1CC(=O)O |  |
|  | 1.92 | CCCN1C(=O)CC[C@H](NC(=O)[C@@H](S)Cc2ccccc2)C(=O)N1CC(=O)O |  |
|  | 0.484 | CN1CCC[C@H](NC(=O)[C@@H](S)Cc2ccccc2)C(=O)N1CC(=O)O |  |
